Measurements from patent US20220000807A1, “METHODS AND APPARATUS FOR TREATING A WOUND” (Chang Gung Memorial Hospital, Linkou, priority 2018, published 2022).

What was measured:
[1] = system: severe, relapsing paronychia and pyogenic granuloma-like lesion on left thumb (induced by afatinib); test: Topical treatment of a patient with afatinib-induced paronychia and pyogenic granuloma-like lesion; assay type: in vivo, human; conditions: one patient; for improvement of paronychia and pyogenic granuloma-like lesion with previous topical treatment: previous treatment with all three agents, FIG. 1A
Excerpt: They were subsequently treated with topical 0.25% betaxolol drops once daily (Alcon Laboratories, USA) for 4 weeks under occlusion.

back incisions of rats = test: In vivo rat back incision wound healing study; conditions: for microscopic changes of the 1 cm×1 cm back wound: Day 10, 10 days of drops twice a day (0.25% betaxolol, 0.5% Timoptol), FIG. 4A-4C
Procedure: An in vivo study was performed to examine the effectiveness of a non-selective β blocker and a β1-blocker using rats. The rats were divided into 3 groups: (a) control (n=2); (b) non-selective […] blocker (n=1); and (c) β1-blocker (n=1). On Day 0 of the experiment, 3 back incisions were made on each rat. The size of the back incisions are 1.5 cm×1.5 cm, 1 cm×1 cm and 0.5 cm×0.5 cm for the top, middle and bottom incisions as shown on FIG. 4A.
The rats in the control group received no treatment, the rat in the non-selective β blocker group received 0.5% Timoptol drop (MSD, USA) twice a day (30 μl for the top incision, 13 μl for the middle incision and 3.3 μl for the bottom incision) and the rat in the β1-blocker group received 0.25% Betoptic drop (Alcon Laboratories, USA) twice a day (30 μl for the top incision, 13 μl for the middle incision and 3.3 μl for the bottom incision).

[2] = system: deep fissure over palms or soles induced by EGFR inhibitors; conditions: 10 patients; topical 0.25% drops once a day; FIG. 2A, 2B
Procedure: 10 patients with deep fissure over palms or soles induced by EGFR inhibitors were treated with topical 0.25% betaxolol drops (Alcon Laboratories, USA) once a day.

Molecule	improvement of paronychia and pyogenic granuloma-like lesion with previous topical treatment [1]	microscopic changes of the 1 cm×1 cm back wound (back incisions of rats)	further results
O=[N+]([O-])[O-].[Ag+] [silver nitrate]	without any improvement	–	–
CC(C)(C)NC[C@H](O)COc1nsnc1N1CCOCC1.O=C(O)/C=C\C(=O)O [Timoptol]	–	incompletely healing, characterized with incomplete re-epithelization of the epidermis, less fibroblast activity and evidence of debri	–
gentamicin sulfate	without any improvement	–	–
CCCCC(=O)O[C@]1(C(=O)CO)[C@@H](C)C[C@H]2[C@@H]3CCC4=CC(=O)C=C[C@]4(C)[C@@]3(F)[C@@H](O)C[C@@]21C [betamethasone valerate]	without any improvement	–	–
CC(C)NCC(O)COc1ccc(CCOCC2CC2)cc1 (centres unmarked) [betaxolol]	–	almost completely healed with re-growth of fibroblasts, complete re-epithelization of epidermis, and no evidence of debri	appearance of back incisions (erythema, size) (back incisions of rats; 0.25% drop twice a day, after 7 days of treatment, compared to 0.5% Timoptol drops and no treatment, FIG. 3C-3E): less erythematous and smaller in size; deep fissure wound healing [2]: healed within one week of treatment in all of the 10 patients; resolution of paronychia and pyogenic granuloma-like lesion ([1]; topical 0.25% drops once daily for 4 weeks under occlusion, FIG. 1B): complete resolution of paronychia and pyogenic granuloma-like lesion
